Assay results from patent publication US20120219623A1, “PHARMACEUTICAL COMPOSITIONS COMPRISING BI-1356 AND METFORMIN” (BOEHRINGER INGELHEIM INTERNATIONAL GMBH, priority 2009, published 2012).

Key:
[1] = test system: type 2 diabetes patients with insufficient glycemic control on metformin plus sulfonylurea; assay: 24-wk placebo-controlled study of linagliptin add-on to metformin plus sulfonylurea
[2] = therapeutic oral dose levels
[3] = test system: inadequately controlled, metformin-treated type 2 diabetic patients; assay: 12-week randomized, double-blind study of BI 1356 add-on to metformin vs placebo or open label glimepiride; settings: 12 weeks
[4] = test system: type 2 diabetes mellitus patients with insufficient glycemic control on metformin; settings: human, in vivo, 24 weeks

Q: What does the source list for `CC#CCn1c(N2CCC[C@@H](N)C2)nc2c1c(=O)n(Cc1nc(C)c3ccccc3n1)c(=O)n2C` [BI 1356]?
A: insulin resistance (HOMA-IR) ([1]; LI vs. PBO, FAS, P<0.05): improve; β-cell function (HOMA-% B) ([1]; LI vs. PBO, FAS, P<0.05): improve; adjusted mean difference between LI and PBO for the change in fasting plasma glucose (FPG) from baseline ([1]; wk 24, full analysis set, add-on to MET plus SU): -13 mg/dL; excreted via the kidney [2]: < 7 % of the administered oral dose; route of excretion [2]: primarily excreted unchanged via the bile; drug-related hypoglycaemia [3]: no case of hypoglycaemia; hypoglycemia, proportion of patients [4]: 0.6%; proportion of patients reporting at least one adverse event (AE) [4]: 52.8%
